Experimental data taken from patent US6737383B1, “Herbicidal oxadiazolidines” (priority 1999, dated 2004).

Columns and labels:
sugar beet = experiment: Test B pre/postemergence sugar beet; assay type: in vivo, Beta vulgaris; conditions: for Sugarbeets plant response rating: scale of 0 to 10 where 0 is no effect and 10 is complete control
How it was run: (§1)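 Test chemicals in a non-phytotoxic solvent mixture with surfactant were sprayed preemergence onto planted seeds and postemergence onto plants 2 to 18 cm tall (1- to 4-leaf stage). After twelve to sixteen days in a greenhouse, injury was visually rated against untreated controls from 0 (no effect) to 10 (complete control).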

rape = experiment: Test B pre/postemergence rape; assay type: in vivo, Brassica napus; conditions: for Rape plant response rating: scale of 0 to 10 where 0 is no effect and 10 is complete control
How it was run: as §1

smallflower flatsedge = experiment: Test B flood test smallflower flatsedge; assay type: in vivo, Cyperus difformis
How it was run: (§2)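 Plants were grown to the 2-leaf stage before treatment with test chemical, then held in a greenhouse for twelve to sixteen days. Injury was visually rated against untreated controls on a 0–10 scale, where 0 is no effect and 10 is complete control.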

soybean = experiment: Test B pre/postemergence soybean; assay type: in vivo, Glycine max; conditions: for Soybean plant response rating: scale of 0 to 10 where 0 is no effect and 10 is complete control
How it was run: as §1

duck salad = experiment: Test B flood test duck salad; assay type: in vivo, Heteranthera limosa
How it was run: as §2

purple nutsedge = experiment: Test B pre/postemergence purple nutsedge; assay type: in vivo, Cyperus rotundus; conditions: for Nutsedge plant response rating: scale of 0 to 10 where 0 is no effect and 10 is complete control
How it was run: as §1

corn = experiment: Test B pre/postemergence corn; assay type: in vivo, Zea mays; conditions: for Corn plant response rating: scale of 0 to 10 where 0 is no effect and 10 is complete control
How it was run: as §1

wild oat = experiment: Test B pre/postemergence wild oat; assay type: in vivo, Avena fatua; conditions: for Wild oats plant response rating: scale of 0 to 10 where 0 is no effect and 10 is complete control
How it was run: as §1

cocklebur = experiment: Test B pre/postemergence cocklebur; assay type: in vivo, Xanthium strumarium; conditions: for Cocklebur plant response rating: scale of 0 to 10 where 0 is no effect and 10 is complete control
How it was run: as §1

surinam grass = experiment: Test B pre/postemergence surinam grass; assay type: in vivo, Brachiaria decumbens; conditions: for B. signalgrass plant response rating: scale of 0 to 10 where 0 is no effect and 10 is complete control
How it was run: as §1

bedstraw = experiment: Test B pre/postemergence bedstraw; assay type: in vivo, Galium aparine; conditions: Preemergence
How it was run: as §1

rice = experiment: Test B flood test rice; assay type: in vivo, Oryza sativa
How it was run: as §2

pigweed = experiment: Test B pre/postemergence pigweed; assay type: in vivo, Amaranthus retroflexus; conditions: for Redroot pigweed plant response rating: scale of 0 to 10 where 0 is no effect and 10 is complete control
How it was run: as §1

wheat = experiment: Test B pre/postemergence wheat; assay type: in vivo, Triticum aestivum; conditions: for Wheat plant response rating: scale of 0 to 10 where 0 is no effect and 10 is complete control
How it was run: as §1

velvetleaf = experiment: Test B pre/postemergence velvetleaf; assay type: in vivo, Abutilon theophrasti; conditions: for Velvetleaf plant response rating: scale of 0 to 10 where 0 is no effect and 10 is complete control
How it was run: as §1

giant foxtail = experiment: Test B pre/postemergence giant foxtail; assay type: in vivo, Setaria faberii; conditions: for Giant foxtail plant response rating: scale of 0 to 10 where 0 is no effect and 10 is complete control
How it was run: as §1

[1] = Postemergence, Rate 125 g/ha, scale 0 to 10, 0 is no effect, 10 is complete control
[2] = Postemergence, Rate 250 g/ha, scale 0 to 10, 0 is no effect, 10 is complete control
[3] = Preemergence, Rate 62 g/ha, scale 0 to 10 (0 no effect, 10 complete control)
[4] = Rate 500 g/ha, Postemergence, scale 0 to 10, 0 no effect, 10 complete control
[5] = Rate 62 g/ha, flood test species, Pre-emergence, visual evaluation after twelve to sixteen days
[6] = Rate 125 g/ha, under heading Pre-emergence, flood test species, visual evaluation after twelve to sixteen days
[7] = Rate 250 g/ha, Pre-emergence, flood-test species, scale 0 to 10, 0 is no effect, 10 is complete control
[8] = Rate 500 g/ha, Pre-emergence, flood test species, scale 0 to 10 (0 no effect, 10 complete control)

Cc1nsc(Cl)c1Cn1c(=O)on(C(=O)N(c2ccc(F)cc2)C(C)C)c1=O [Compound 373]
8: Plant response rating, Giant foxtail (giant foxtail; [3]) | Giant foxtail plant response rating (0 to 10 scale) (giant foxtail; Preemergence, Rate 125 g/ha)
5: Plant response rating, Rape (rape; [4])
4: Sugarbeets plant response rating (sugar beet; Preemergence, Rate 250 g/ha) | Plant response rating, Sugarbeets (sugar beet; [4]) | Plant response rating, Soybean (soybean; [2]) | Plant response rating, Soybean (soybean; [4]) | Plant response rating, Redroot pigweed (pigweed; [2])
7: Sugarbeets plant response rating (sugar beet; Preemergence, Rate 500 g/ha) | Redroot pigweed plant response rating (pigweed; Preemergence, Rate 250 g/ha)
0: Plant response rating, Sugarbeets (sugar beet; [1]) | Plant response rating, Sugarbeets (sugar beet; [3]) | Sugarbeets plant response rating (0 to 10 scale) (sugar beet; Preemergence, Rate 125 g/ha) | Sugarbeets plant response rating (sugar beet; Rate 62 g/ha, Postemergence) | Plant response rating, Rape (rape; [3]) | Rape plant response rating (0 to 10 scale) (rape; Preemergence, Rate 125 g/ha) | Rape plant response rating (rape; Preemergence, Rate 250 g/ha) | Rape plant response rating (rape; Rate 62 g/ha, Postemergence) | Plant response rating, S. Flatsedge (0 to 10 scale, 0 is no effect, 10 is complete control) (smallflower flatsedge; [5]) | S. Flatsedge plant response rating (0 to 10 scale, 0 is no effect, 10 is complete control) (smallflower flatsedge; [6]) | S. Flatsedge plant response rating (smallflower flatsedge; [7]) | S. Flatsedge plant response rating (smallflower flatsedge; [8]) | Plant response rating, Soybean (soybean; [3]) | Soybean plant response rating (0 to 10 scale) (soybean; Preemergence, Rate 125 g/ha) | Soybean plant response rating (soybean; Preemergence, Rate 250 g/ha) | Plant response rating, Ducksalad (0 to 10 scale, 0 is no effect, 10 is complete control) (duck salad; [5]) | Ducksalad plant response rating (0 to 10 scale, 0 is no effect, 10 is complete control) (duck salad; [6]) | Ducksalad plant response rating (duck salad; [7]) | Ducksalad plant response rating (duck salad; [8]) | Plant response rating, Nutsedge (purple nutsedge; [1]) | Plant response rating, Nutsedge (purple nutsedge; [2]) | Plant response rating, Nutsedge (purple nutsedge; [3]) | Nutsedge plant response rating (0 to 10 scale) (purple nutsedge; Preemergence, Rate 125 g/ha) | Nutsedge plant response rating (purple nutsedge; Preemergence, Rate 250 g/ha) | Nutsedge plant response rating (purple nutsedge; Preemergence, Rate 500 g/ha) | Nutsedge plant response rating (purple nutsedge; Rate 62 g/ha, Postemergence) | Plant response rating, Nutsedge (purple nutsedge; [4]) | Plant response rating, Corn (corn; [1]) | Plant response rating, Corn (corn; [2]) | Plant response rating, Corn (corn; [3]) | Corn plant response rating (0 to 10 scale) (corn; Preemergence, Rate 125 g/ha) | Corn plant response rating (corn; Rate 62 g/ha, Postemergence) | Plant response rating, Corn (corn; [4]) | Plant response rating, Wild oats (wild oat; [1]) | Plant response rating, Wild oats (wild oat; [2]) | Plant response rating, Wild oats (wild oat; [3]) | Wild oats plant response rating (0 to 10 scale) (wild oat; Preemergence, Rate 125 g/ha) | Wild oats plant response rating (wild oat; Preemergence, Rate 250 g/ha) | Wild oats plant response rating (wild oat; Preemergence, Rate 500 g/ha) | Wild oats plant response rating (wild oat; Rate 62 g/ha, Postemergence) | Plant response rating, Wild oats (wild oat; [4]) | Plant response rating, Cocklebur (cocklebur; [3]) | Cocklebur plant response rating (0 to 10 scale) (cocklebur; Preemergence, Rate 125 g/ha) | Cocklebur plant response rating (cocklebur; Preemergence, Rate 250 g/ha) | Cocklebur plant response rating (cocklebur; Preemergence, Rate 500 g/ha) | Cocklebur plant response rating (cocklebur; Rate 62 g/ha, Postemergence) | Plant response rating, B. signalgrass (surinam grass; [1]) | Plant response rating, B. signalgrass (surinam grass; [2]) | Plant response rating, B. signalgrass (surinam grass; [3]) | B. signalgrass plant response rating (0 to 10 scale, 0 is no effect, 10 is complete control) (surinam grass; Preemergence, Rate 125 g/ha) | B. signalgrass plant response rating (surinam grass; Preemergence, Rate 250 g/ha) | B. signalgrass plant response rating (surinam grass; Rate 62 g/ha, Postemergence) | Plant response rating, B. signalgrass (surinam grass; [4]) | Plant response rating, Bedstraw (bedstraw; Rate 62 g/ha, scale 0 to 10 (0 no effect, 10 complete control)) | Bedstraw plant response rating (0 to 10 scale) (bedstraw; Rate 125 g/ha) | Bedstraw plant response rating (bedstraw; Rate 500 g/ha, scale of 0 to 10 where 0 is no effect and 10 is complete control) | Plant response rating, Rice (0 to 10 scale, 0 is no effect, 10 is complete control) (rice; [5]) | Rice plant response rating (0 to 10 scale, 0 is no effect, 10 is complete control) (rice; [6]) | Rice plant response rating (rice; [7]) | Rice plant response rating (rice; [8]) | Plant response rating, Redroot pigweed (pigweed; [3]) | Plant response rating, Wheat (wheat; [1]) | Plant response rating, Wheat (wheat; [2]) | Plant response rating, Wheat (wheat; [3]) | Wheat plant response rating (0 to 10 scale) (wheat; Preemergence, Rate 125 g/ha) | Wheat plant response rating (wheat; Preemergence, Rate 250 g/ha) | Wheat plant response rating (wheat; Preemergence, Rate 500 g/ha) | Wheat plant response rating (wheat; Rate 62 g/ha, Postemergence) | Plant response rating, Wheat (wheat; [4]) | Plant response rating, Velvetleaf (velvetleaf; [1]) | Plant response rating, Velvetleaf (velvetleaf; [3]) | Velvetleaf plant response rating (0 to 10 scale) (velvetleaf; Preemergence, Rate 125 g/ha) | Velvetleaf plant response rating (velvetleaf; Preemergence, Rate 250 g/ha) | Velvetleaf plant response rating (velvetleaf; Preemergence, Rate 500 g/ha) | Velvetleaf plant response rating (velvetleaf; Rate 62 g/ha, Postemergence) | Giant foxtail plant response rating (giant foxtail; Rate 62 g/ha, Postemergence)
1: Plant response rating, Sugarbeets (sugar beet; [2]) | Plant response rating, Rape (rape; [1]) | Plant response rating, Cocklebur (cocklebur; [1]) | Plant response rating, Velvetleaf (velvetleaf; [2])
3: Plant response rating, Soybean (soybean; [1]) | Soybean plant response rating (soybean; Rate 62 g/ha, Postemergence) | Corn plant response rating (corn; Preemergence, Rate 250 g/ha) | Corn plant response rating (corn; Preemergence, Rate 500 g/ha) | Plant response rating, Redroot pigweed (pigweed; [1]) | Redroot pigweed plant response rating (0 to 10 scale) (pigweed; Preemergence, Rate 125 g/ha) | Plant response rating, Giant foxtail (giant foxtail; [1]) | Plant response rating, Giant foxtail (giant foxtail; [2])
6: Plant response rating, Redroot pigweed (pigweed; [4]) | Plant response rating, Giant foxtail (giant foxtail; [4])
2: Plant response rating, Rape (rape; [2]) | Soybean plant response rating (soybean; Preemergence, Rate 500 g/ha) | Plant response rating, Cocklebur (cocklebur; [2]) | Plant response rating, Cocklebur (cocklebur; [4]) | B. signalgrass plant response rating (surinam grass; Preemergence, Rate 500 g/ha) | Redroot pigweed plant response rating (pigweed; Rate 62 g/ha, Postemergence) | Plant response rating, Velvetleaf (velvetleaf; [4])
10: Redroot pigweed plant response rating (pigweed; Preemergence, Rate 500 g/ha) | Giant foxtail plant response rating (giant foxtail; Preemergence, Rate 250 g/ha) | Giant foxtail plant response rating (giant foxtail; Preemergence, Rate 500 g/ha)
